Laboratory results from patent US10913727B2, “Modulators of the integrated stress pathway” (Calico Life Sciences LLC, priority 2016, dated 2021).

System: HEK293T cells carrying the ATF4 luciferase reporter
Assay: ATF4-Luc assay, in vitro model of Vanishing Cell White Matter Disease (VWMD)
Format: cell-based
Details: Homo sapiens, HEK-293T, 1 μg/mL tunicamycin, 7 hours, One Glo luminescence
Outline: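 Reporter cells were stably generated by retroviral transduction and puromycin selection, then seeded at 30,000 cells/well. Next day, cells received 1 μg/mL tunicamycin with 200 nM test compound for 7 h, and luciferase luminescence was read with a one-step reagent. Values reported as EC50.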

SMILES | EC50 [µM]
Cc1cc(C(=O)NC23CC(NC(=O)COc4ccc(Cl)c(F)c4)(C2)C3)oc1C [Compound 612, N-{3-[2-(4-chloro-3-fluorophenoxy)acetamido]bicyclo[1.1.1]pentan-1-yl}-4,5-dimethylfuran-2-carboxamide] | 0.05 to 0.25
Cc1coc(C(=O)NC23CC(NC(=O)COc4ccc(Cl)c(F)c4)(C2)C3)c1 [Compound 613, N-{3-[2-(4-chloro-3-fluorophenoxy)acetamido]bicyclo[1.1.1]pentan-1-yl}-4-methylfuran-2-carboxamide] | 0.05 to 0.25
O=C(COc1ccc(Cl)c(Cl)c1)NC12CC(NC(=O)c3cnc(C4CC4)o3)(C1)C2 [Compound 614, 2-cyclopropyl-N-{3-[2-(3,4-dichlorophenoxy)acetamido]bicyclo[1.1.1]pentan-1-yl}-1,3-oxazole-5-carboxamide] | 0.05 to 0.25
NCc1ccnc(C(=O)NC23CC(NC(=O)COc4ccc(Cl)c(Cl)c4)(C2)C3)c1 [Compound 615, 4-(aminomethyl)-N-{3-[2-(3,4-dichlorophenoxy)acetamido]bicyclo[1.1.1]pentan-1-yl}pyridine-2-carboxamide] | 0.05 to 0.25
Cc1cnc(C(=O)NC23CCC(NC(=O)COc4ccc(Cl)c(F)c4)(C2)C3)s1 [Compound 616, N-{4-[2-(4-chloro-3-fluorophenoxy)acetamido]bicyclo[2.1.1]hexan-1-yl}-5-methyl-1,3-thiazole-2-carboxamide] | > 2
Cc1cc(C(=O)NC23CC(NC(=O)COc4ccc(Cl)c(Cl)c4)(C2)C3)sn1 [Compound 617, N-{3-[2-(3,4-dichlorophenoxy)acetamido]bicyclo[1.1.1]pentan-1-yl}-3-methyl-1,2-thiazole-5-carboxamide] | < 0.05
CCc1cc(C(=O)NC23CCC(NC(=O)COc4ccc(Cl)c(F)c4)(CC2)[C@@H](O)C3)on1 [Compound 618, N-{(3S)-4-[2-(4-chloro-3-fluorophenoxy)acetamido]-3-hydroxybicyclo[2.2.2]octan-1-yl}-3-ethyl-1,2-oxazole-5-carboxamide] | < 0.05
COCc1nc(C(=O)NC23CCC(NC(=O)COc4ccc(Cl)c(F)c4)(CC2)[C@@H](O)C3)cs1 [Compound 619, N-{(3S)-4-[2-(4-chloro-3-fluorophenoxy)acetamido]-3-hydroxybicyclo[2.2.2]octan-1-yl}-2-(methoxymethyl)-1,3-thiazole-4-carboxamide] | < 0.05
Cn1ncc2cc(C(=O)NC34CC(NC(=O)COc5ccc(Cl)c(F)c5)(C3)C4)cnc21 [Compound 620, N-{3-[2-(4-chloro-3-fluorophenoxy)acetamido]bicyclo[1.1.1]pentan-1-yl}-1-methyl-1H-pyrazolo[3,4-b]pyridine-5-carboxamide] | 1 to 2
Cc1ccc(C(=O)NC23CCC(NC(=O)COc4ccc(Cl)c(F)c4)(CC2)C(O)C3)s1 (stereo not shown) [Compound 621, N-{4-[2-(4-chloro-3-fluorophenoxy)acetamido]-3-hydroxybicyclo[2.2.2]octan-1-yl}-5-methylthiophene-2-carboxamide] | 0.05 to 0.25
Cc1csc(C(=O)NC23CCC(NC(=O)COc4ccc(Cl)c(F)c4)(CC2)C(O)C3)c1 (stereo not shown) [Compound 622, N-{4-[2-(4-chloro-3-fluorophenoxy)acetamido]-3-hydroxybicyclo[2.2.2]octan-1-yl}-4-methylthiophene-2-carboxamide] | < 0.05
O=C(COc1ccc(Cl)c(F)c1)NC12CCC(NC(=O)c3ccc(C(F)F)s3)(CC1)CC2O (stereo not shown) [Compound 623, N-{4-[2-(4-chloro-3-fluorophenoxy)acetamido]-3-hydroxybicyclo[2.2.2]octan-1-yl}-5-(difluoromethyl)thiophene-2-carboxamide] | 0.05 to 0.25
Cc1ccc(C(=O)NC23CCC(NC(=O)COc4ccc(Cl)c(F)c4)(CC2)C(O)C3)o1 (stereo not shown) [Compound 624, N-{4-[2-(4-chloro-3-fluorophenoxy)acetamido]-3-hydroxybicyclo[2.2.2]octan-1-yl}-5-methylfuran-2-carboxamide] | 0.05 to 0.25
